The text below walks through data of patent US8569267B2, “Tetracyclic tetrahydrofuran derivatives containing cyclic amine side chain” (Janssen Pharmaceutica, NV, priority 2005, dated 2013).

For test [1], the target named is T1, human Dopamine D2L receptor (Homo sapiens, UniProt P14416).
T1 construct: expressed in transfected cells; host or cells: CHO cells
Nature of the test: In vitro binding affinity for human D2L receptor ([3H]Spiperone binding). As to conditions: human D2L receptor-transfected CHO cell membranes; for IC50: read-out: D2L pIC50 (converted). Put shortly:
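Competition curves were expressed as percent specific binding, measured by scintillation counting after filtration onto GF/B filters and ice-cold Tris washes. Test compounds competed with [3H]Spiperone, added from a 2 nmol/L dilution, for 30 min at 37° C on transfected CHO membranes in pH 7.7 Tris-HCl salt buffer. Butaclamol at 10^−6 mol/l final marked non-specific binding.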

Test [2] has as its target T2, NET (norepinephrine transporter) (Rattus norvegicus, UniProt Q63380).
T2 construct: Cortex from rat brain was collected and homogenised; from tissue; host or cells: rat brain cortex
Nature of the test: In vitro determination of NET reuptake inhibition ([3H]Nixosetine binding, rat brain cortex). As to conditions: rat brain cortex; for IC50: read-out: NET pIC50 (converted). Summed up: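 Competition curves and percentage specific binding came from scintillation counting of filter-trapped radioactivity. The membranes were rat cortical homogenate in pH 7.4 Tris buffer with 120 mM NaCl and 5 mM KCl. Test compounds competed with [3H]nisoxetine for binding.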

For test [3], the target named is T3, human cloned 5-HT2C receptor, expressed in CHO cells (Homo sapiens, UniProt P28335).
T3 construct: expressed in transfected cells; host or cells: CHO cells
T3 sequence (P28335 33-458): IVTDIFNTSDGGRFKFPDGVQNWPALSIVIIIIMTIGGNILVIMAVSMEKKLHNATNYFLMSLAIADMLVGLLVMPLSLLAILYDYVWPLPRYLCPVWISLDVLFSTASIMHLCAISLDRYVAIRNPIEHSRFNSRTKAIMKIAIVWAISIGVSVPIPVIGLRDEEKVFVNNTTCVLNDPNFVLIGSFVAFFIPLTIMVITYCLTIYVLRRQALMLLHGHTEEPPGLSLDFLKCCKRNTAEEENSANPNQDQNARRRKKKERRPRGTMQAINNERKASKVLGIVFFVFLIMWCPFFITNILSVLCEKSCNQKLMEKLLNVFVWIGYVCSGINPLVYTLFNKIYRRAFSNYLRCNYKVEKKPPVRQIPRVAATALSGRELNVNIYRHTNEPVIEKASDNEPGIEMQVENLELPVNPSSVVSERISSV
As to the kind of experiment: In vitro binding affinity for 5-HT2C receptor ([3H]mesulergine radioligand binding). As to conditions: human cloned 5-HT2C receptor; for IC50: read-out: 5-HT2C pIC50 (converted). Put shortly:
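Receptor-bound radioligand counted after separation from unbound label once equilibrium is reached. Test compound added across a concentration range to tissue preparation plus radioligand; inhibition of binding reflects affinity and concentration.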

The target of test [4] is T4, human cloned 5-HT2A receptor, expressed in L929 cells (Homo sapiens, UniProt P28223).
T4 construct: expressed in transfected cells; host or cells: L929 cells
As to the kind of experiment: In vitro binding affinity for 5-HT2A receptor ([125I]R91150 radioligand binding). As to conditions: human cloned 5-HT2A receptor in L929 cells, [125I]R91150; for IC50: read-out: 5-HT2A pIC50 (converted). Here is the method:
In Vitro Binding Affinity for 5-HT2A and 5-HT2C Receptors
The interaction of the compounds of Formula (I) with 5-HT2A and 5-HT2C receptors was assessed in in vitro radioligand binding experiments. […] During the incubation, the radioligands bind to the receptor. When equilibrium of binding is reached, the receptor bound radioactivity is separated from the non-bound radioactivity, and the receptor bound activity is counted. The interaction of the test compounds with the receptors is assessed in competition binding experiments. Various concentrations of the test compound are added to the incubation mixture containing the tissue preparation and the radioligand. Binding of the radioligand will be inhibited by the test compound in proportion to its binding affinity and its concentration. The affinities of the compounds for the 5-HT2 receptors were measured by means of radioligand binding studies conducted with: (a) human cloned 5-HT2A receptor, expressed in L929 cells using [^125I]R91150 as radioligand and (b) human cloned 5-HT2C receptor, expressed in CHO cells using [^3H]mesulergine as radioligand.

T2 sequence (Q63380 1-617): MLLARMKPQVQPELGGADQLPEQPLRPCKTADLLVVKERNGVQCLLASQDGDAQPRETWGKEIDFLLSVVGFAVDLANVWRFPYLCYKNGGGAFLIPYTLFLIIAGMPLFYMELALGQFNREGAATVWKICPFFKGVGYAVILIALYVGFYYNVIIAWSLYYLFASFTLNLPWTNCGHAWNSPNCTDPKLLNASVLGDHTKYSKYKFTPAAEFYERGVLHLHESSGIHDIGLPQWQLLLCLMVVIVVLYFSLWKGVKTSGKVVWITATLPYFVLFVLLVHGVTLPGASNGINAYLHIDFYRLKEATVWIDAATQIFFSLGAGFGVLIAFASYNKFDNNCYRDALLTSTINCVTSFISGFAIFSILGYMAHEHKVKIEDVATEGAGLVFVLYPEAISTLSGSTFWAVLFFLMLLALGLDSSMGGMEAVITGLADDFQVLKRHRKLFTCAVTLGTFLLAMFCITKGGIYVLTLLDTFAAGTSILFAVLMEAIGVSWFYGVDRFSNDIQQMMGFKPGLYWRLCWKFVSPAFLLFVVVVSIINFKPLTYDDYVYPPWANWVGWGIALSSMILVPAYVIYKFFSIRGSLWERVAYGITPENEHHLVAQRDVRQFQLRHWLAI
T4 sequence (P28223 whole entry): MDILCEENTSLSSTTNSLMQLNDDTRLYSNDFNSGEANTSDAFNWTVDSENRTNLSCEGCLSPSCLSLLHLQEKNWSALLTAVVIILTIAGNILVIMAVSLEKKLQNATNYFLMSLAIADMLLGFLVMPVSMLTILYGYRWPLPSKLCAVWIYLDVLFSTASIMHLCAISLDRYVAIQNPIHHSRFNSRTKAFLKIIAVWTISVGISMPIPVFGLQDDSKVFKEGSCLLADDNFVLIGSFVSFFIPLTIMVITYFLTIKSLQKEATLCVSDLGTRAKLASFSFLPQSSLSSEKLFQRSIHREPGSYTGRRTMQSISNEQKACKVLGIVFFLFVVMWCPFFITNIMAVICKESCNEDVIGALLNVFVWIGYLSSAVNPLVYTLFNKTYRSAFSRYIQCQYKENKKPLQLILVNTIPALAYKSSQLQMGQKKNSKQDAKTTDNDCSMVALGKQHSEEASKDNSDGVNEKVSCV
T1 sequence (P14416 whole entry): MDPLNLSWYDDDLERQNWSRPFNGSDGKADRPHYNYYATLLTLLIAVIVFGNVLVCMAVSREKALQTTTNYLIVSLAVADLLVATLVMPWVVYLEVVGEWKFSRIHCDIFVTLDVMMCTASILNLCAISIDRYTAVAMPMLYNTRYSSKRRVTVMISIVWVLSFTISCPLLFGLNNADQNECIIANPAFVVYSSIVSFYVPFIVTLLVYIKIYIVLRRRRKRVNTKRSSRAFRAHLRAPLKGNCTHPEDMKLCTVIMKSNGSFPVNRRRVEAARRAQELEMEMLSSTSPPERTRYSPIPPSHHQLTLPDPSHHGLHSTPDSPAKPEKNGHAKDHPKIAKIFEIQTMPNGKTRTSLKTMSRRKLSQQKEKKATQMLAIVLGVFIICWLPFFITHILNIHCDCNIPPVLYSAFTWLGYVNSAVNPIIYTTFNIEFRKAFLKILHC

Turning to `N#Cc1ccc2c(c1)[C@H]1C[C@@H](CN3CCC(O)C3)O[C@H]1c1cc(F)ccc1S2` (relative stereo) [Compound 260], the IC50 is 24.5 nM in test [1], 912 nM in test [2], 3.09 nM in test [3] and 2.24 nM in test [4].
The corresponding values for `CN1c2ccccc2[C@H]2C[C@@H](CN3CCC(O)C3)O[C@@H]2c2ccccc21` (relative stereo) [Compound 264] are 2240 nM, 4170 nM, 19.1 nM and 166 nM.
As to `COC(=O)C1CCN(C[C@H]2C[C@@H]3c4ccccc4Cc4ccc(F)cc4[C@@H]3O2)C1` (single isomer, unassigned) [Compound 11, [2R-(2α, 3aα, 12bβ)]-(3′RS) 1-(11-fluoro-3,3a,8,12b-tetrahydro-2H-1-oxa-dibenzo[e,h]azulen-2-ylmethyl)-pyrrolidine-3-carboxylic acid methyl ester.oxalate (1:1)], the IC50 is 9.77 nM in test [1], 8320 nM in test [2], 0.708 nM in test [3] and 2.04 nM in test [4].
Consider `O=C(O)C(=O)O.OCC1CCCN(C[C@H]2C[C@@H]3c4ccccc4Cc4ccc(F)cc4[C@@H]3O2)C1` (single isomer, unassigned) [Compound 148], for which the “D2L pIC50” value in test [1] is listed as 8.35. Moreover, the “NET pIC50” value in test [2] is reported as <5. For the same compound, the “5-HT2C pIC50” value in test [3] was 8.71. In addition, the “5-HT2A pIC50” value in test [4] came to 8.87.
As to `O=C(O)C(=O)O.OCC1CCCN(C[C@H]2C[C@@H]3c4ccccc4Cc4ccc(F)cc4[C@@H]3O2)C1` (single isomer, unassigned) [Compound 149], the “D2L pIC50” value in test [1] was 8.61. In addition, the “NET pIC50” value in test [2] was <5.52. For the same compound, the “5-HT2C pIC50” value in test [3] came out at 9.10. For the same compound, the “5-HT2A pIC50” value in test [4] was found to be 9.08.
Consider `OC1CCN(C[C@H]2C[C@@H]3c4ccccc4Cc4ccc(F)cc4[C@@H]3O2)C1` (stereo partly drawn) [Compound 1, [2R-(2α, 3aα, 12bβ)]-(3′RS) 1-(11-fluoro-3,3a,8,12b-tetrahydro-2H-1-oxa-dibenzo[e,h]azulen-2-ylmethyl)-pyrrolidin-3-ol.oxalate (1:1)], for which the IC50 in test [1] is 7.41 nM; in test [2], 479 nM; in test [3], 0.372 nM; in test [4] it was 0.692 nM.
On to `COC1CCN(C[C@H]2C[C@@H]3c4ccccc4Cc4ccc(F)cc4[C@@H]3O2)C1` (some centres unmarked) [Compound 4], for which the IC50 in test [1] was 16.2 nM; in test [2], 5890 nM; in test [3], 2.09 nM; in test [4] it was < 10 nM.
Turning to `OCC1CCN(C[C@H]2C[C@@H]3c4ccccc4Cc4ccc(F)cc4[C@@H]3O2)C1` (some centres unmarked) [Compound 5], the IC50 was 8.51 nM in test [1], 4070 nM in test [2], 0.204 nM in test [3] and < 10 nM in test [4].
With `O=C1CCN(C[C@H]2C[C@@H]3c4ccccc4Cc4ccc(F)cc4[C@@H]3O2)C1` [Compound 7, [2R-(2α, 3aα, 12bβ)]1-(11-fluoro-3,3a,8,12b-tetrahydro-2H-1-oxa-dibenzo[e,h]-azulen-2-ylmethyl)-pyrrolidin-3-one], the IC50 in test [1] is 141 nM; in test [2], 1620 nM; in test [3], 2.95 nM; in test [4], < 10 nM.
Take `O=C(O)C1CCN(C[C@H]2C[C@@H]3c4ccccc4Cc4ccc(F)cc4[C@@H]3O2)C1` (some centres unmarked) [Compound 10]: the IC50 in test [1] is 437 nM; in test [2] it was > 10000 nM; in test [3], 13.5 nM; in test [4], 17.4 nM.
Take `COC(=O)C1CCN(C[C@H]2C[C@@H]3c4ccccc4Cc4ccc(F)cc4[C@@H]3O2)C1` (some centres unmarked) [Compound 12]: the IC50 in test [1] was 6.31 nM; in test [2], 759 nM; in test [3], 2.04 nM; in test [4], 1.17 nM.
With `O=C(Nc1ccc(F)cc1)OCC1CCN(CC2CC3c4ccccc4Cc4ccc(F)cc4C3O2)C1` (centres unmarked) [Compound 23], the IC50 in test [1] was 5.62 nM; in test [2], 3800 nM; in test [3], 3.8 nM; in test [4], 2.95 nM.
For `COc1ccc(OCC2CCN(C[C@H]3C[C@@H]4c5ccccc5Cc5ccc(F)cc5[C@@H]4O3)C2)cc1` (some centres unmarked) [Compound 25], the IC50 in test [1] is 6.03 nM; in test [2], 2190 nM; in test [3], 4.68 nM; in test [4], 1.58 nM.
Consider `Fc1ccc(OCC2CCN(CC3CC4c5ccccc5Cc5ccc(F)cc5C4O3)C2)cc1` (centres unmarked) [Compound 26], for which the IC50 is 3.63 nM in test [1], > 10000 nM in test [2], 5.62 nM in test [3] and 5.13 nM in test [4].
Turning to `Fc1cccc(OCC2CCN(CC3CC4c5ccccc5Cc5ccc(F)cc5C4O3)C2)c1` (centres unmarked) [Compound 27], the IC50 in test [1] is 3.89 nM; in test [2], 5010 nM; in test [3], 4.27 nM; in test [4], 8.71 nM.
In the case of `Cc1ccc(OC2CCN(CC3CC4c5ccccc5Cc5ccc(F)cc5C4O3)C2)cc1` (centres unmarked) [Compound 28], the IC50 in test [1] is 7.59 nM; in test [2], > 10000 nM; in test [3], 1.78 nM; in test [4], 18.6 nM.
The corresponding values for `COC(=O)c1ccc(OC2CCN(CC3CC4c5ccccc5Cc5ccc(F)cc5C4O3)C2)cc1` (centres unmarked) [Compound 30] are 16.2 nM, > 10000 nM, 5.75 nM and 10.5 nM.
On to `CC1(O)CCN(C[C@H]2C[C@@H]3c4ccccc4Cc4ccc(F)cc4[C@@H]3O2)C1` (some centres unmarked) [Compound 39], for which the IC50 in test [1] was 3.09 nM; in test [2], 1950 nM; in test [3] it was 0.513 nM; in test [4], 0.631 nM.
Take `C=CC1(O)CCN(CC2CC3c4ccccc4Cc4ccc(F)cc4C3O2)C1` (centres unmarked) [Compound 40]: the IC50 in test [1] was 4.47 nM; in test [2], > 10000 nM; in test [3] it was 0.275 nM; in test [4], 1.23 nM.
In the same order, the values of `NCCN1CCN(CC2CC3c4ccccc4Cc4ccc(F)cc4C3O2)CC1` (centres unmarked) [Compound 47] are 10 nM, > 10000 nM, 34.7 nM and 6.46 nM.
With `Fc1ccc2c(c1)C1OC(CN3CCN(CC=Cc4ccccc4)CC3)CC1c1ccccc1C2` (centres unmarked) [Compound 48], the IC50 in test [1] is 9.55 nM; in test [2] it was 2090 nM; in test [3] it was 32.4 nM; in test [4] it was 30.9 nM.
In the case of `CC(=Cc1ccccc1)CN1CCN(CC2CC3c4ccccc4Cc4ccc(F)cc4C3O2)CC1` (centres unmarked) [Compound 49], the IC50 in test [1] is 33.1 nM; in test [2], 2570 nM; in test [3] it was 120 nM; in test [4] it was 33.9 nM.
As to `CCCCCC(=Cc1ccccc1)CN1CCN(CC2CC3c4ccccc4Cc4ccc(F)cc4C3O2)CC1` (centres unmarked) [Compound 50], the IC50 in test [1] was 70.8 nM; in test [2] it was 2140 nM; in test [3], 105 nM; in test [4] it was 34.7 nM.
As for `O=C(CCN1CCN(CC2CC3c4ccccc4Cc4ccc(F)cc4C3O2)CC1)c1ccc(F)cc1` (centres unmarked) [Compound 52], the IC50 in test [1] was 1.2 nM; in test [2] it was 490 nM; in test [3], 2.88 nM; in test [4], 3.39 nM.
With `Fc1ccc(OCCN2CCN(CC3CC4c5ccccc5Cc5ccc(F)cc5C4O3)CC2)cc1` (centres unmarked) [Compound 54], the IC50 is 2.45 nM in test [1], 2190 nM in test [2], 8.13 nM in test [3] and 7.59 nM in test [4].
The corresponding values for `OC(COc1ccc(Cl)cc1)CN1CCN(C[C@H]2C[C@@H]3c4ccccc4Cc4ccc(F)cc4[C@@H]3O2)CC1` (some centres unmarked) [Compound 56] are 26.3 nM, 5620 nM, 10.2 nM and 6.03 nM.
